These results are taken from paper PMC10895676, “Antiviral Activity of Lipophilic Nucleoside Tetraphosphate Compounds” (Journal of Medicinal Chemistry, 2024).

The term CC50 denotes the concentration that lowers cell viability or growth by half.

One data set deals with HIV-2 (ROD). The data set is described as follows: Anti-HIV replication assay, HIV-2 (ROD) in thymidine kinase-deficient CEM/TK– cells. The format is cell-based. To be noted: for selectivity index (SI): CC50/EC50, HIV-2 (ROD) in CEM/TK– cells; for EC50: read-out: CEM/TK– HIV-2 (ROD) EC50; for improvement of antiviral activity as compared to the parent d4T: HIV-2, CEM/TK– cells. An outline of the steps: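 Wild-type CEM/0 or thymidine kinase-deficient CEM/TK– T-cells (~3 × 10^5 cells/mL) were infected with 100 CCID50/mL HIV-2(ROD) in the presence of compound dilutions. After 4–5 days at 37 °C, virus-induced cytopathicity and syncytium formation were scored microscopically.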

A short description of data set [1]: Cytotoxicity, inhibition of CEM cell proliferation. It is filed as cell-based. To be noted: human, CEM cells (CD4+ T-cells), read-out: toxicity CC50.
Data set [2] can be described thus: Hydrolysis in citrate-stabilized human plasma. It is filed as in vitro ADME. As to conditions: 37 °C, read-out: t1/2 in citrate-stabilized human plasma (converted). The method, then:
Finally, the supernatant was divided into aliquots and frozen at −80 °C.
Two different samples, including 10 μL of water and 10 μL of 6.0 mM hydrolysis solution, were prepared in 2 mL Eppendorf vials. Next, 50 μL of human CEM cell extracts or 50 μL of human citrate plasma were added to the mixture, the reaction was started, and the mixture was incubated at 37 °C for different time periods. The reactions were stopped by the addition of 150 μL of MeOH. The resulting suspension was kept on ice for 5 min, followed by defrosting and centrifugation at 14,000 rpm (Heraeus, Biofuge Pico) for 22 min. The supernatants (80 or 60 μL) were directly injected into HPLC. The calculation of t1/2 was performed analogously to that for the chemical hydrolysis studies.

Where [3] appears, read: Human immunodeficiency virus 2, CEM/TK– cells, mean ± SD, n = 2–3.

Structures are written as SMILES. Where two headings read alike, the source gives them in different places. Some results are limits rather than exact numbers.

Regarding `Cc1cn([C@H]2C=C[C@@H](COP(=O)(O)OP(=O)(O)OP(=O)(O)OP(=O)(O)O)O2)c(=O)[nH]c1=O` [d4T4P, 2′,3′-didehydro-2′,3′-dideoxythymidine-5′-tetraphosphate], the “selectivity index (SI)” value with HIV-2 (ROD) is reported as more than 3. In addition, in the data set with HIV-2 (ROD) (setting [3]), the EC50 was determined as 33.8 ± 21.3 µM. The CC50 in data set [1] is more than 100 µM.

Consider `CCCCCCCCCCCCCCCCCCOP(=O)(O)OP(=O)(O)OP(=O)(O)OP(=O)(O)OC[C@@H]1C=C[C@H](n2cc(C)c(=O)[nH]c2=O)O1` [compound 20, δ-(Alkyl-C18)-d4T4P], for which the “selectivity index (SI)” value in the data set on HIV-2 (ROD) is given as more than 21. The EC50 in the data set on HIV-2 (ROD) (setting [3]) was found to be 4.6 ± 0.33 µM. For the same compound, the CC50 in data set [1] was more than 100 µM.

Regarding `CCCCCCCCCCCCCCCCCCP(=O)(OCCCC)OP(=O)(O)OP(=O)(O)OP(=O)(O)OC[C@@H]1C=C[C@H](n2cc(C)c(=O)[nH]c2=O)O1` (stereo partly drawn) [5a, δ-(Alkyl-C4)-δ-C-(alkyl-C18)-d4T4P], the half-life at 0.86 mM in data set [2] was more than 22 h. The “improvement of antiviral activity as compared to the parent d4T” value in the data set on HIV-2 (ROD) is more than 1100 fold. Besides, in the data set with HIV-2 (ROD) (Human immunodeficiency virus 2, CEM-TK(-)), the EC50 was determined as 0.043 ± 0.026 µM. For the same compound, the CC50 in data set [1] amounted to 44.6 µM.

`CCCCCCCCCCCCCCCCCCP(=O)(O)OP(=O)(O)OP(=O)(O)OP(=O)(O)OC[C@@H]1C=C[C@H](n2cc(C)c(=O)[nH]c2=O)O1` [compound 24, δ-C-(Alkyl-C18)-d4T4P]: the half-life at 0.86 mM in data set [2] is more than 22 h. In addition, the “selectivity index (SI)” value with HIV-2 (ROD) stood at 30. Besides, the EC50 in the data set with HIV-2 (ROD) (setting [3]) was found to be 1.35 ± 0.63 µM. In addition, in data set [1], the CC50 was 23.2 µM.

`CCCCCCCCCCCCCCCCCCOP(=O)(OCCCC)OP(=O)(O)OP(=O)(O)OP(=O)(O)OC[C@@H]1C=C[C@H](n2cc(C)c(=O)[nH]c2=O)O1` (stereo partly drawn) [4d, δ-(Alkyl-C4; alkyl-C18)-d4T4P]: in the data set on HIV-2 (ROD), the “selectivity index (SI)” value was found to be 260 and the “improvement of antiviral activity as compared to the parent d4T” value is more than 270 fold. Also, the EC50 in the data set on HIV-2 (ROD) (setting [3]) was found to be 0.18 ± 0.15 µM. Besides, the CC50 in data set [1] is 43.9 µM.
